Key:
human FPR2 = target: T1, human FPR2 (Homo sapiens, UniProt P25090); assay: FPR2 cyclic adenosine monophosphate (cAMP) assay; type: cell-based; settings: CHO cells overexpressing human FPR2; forskolin 5 μM; inhibition of cAMP production; HTRF; read-out: hFPR2 cAMP2 EC50
T1 sequence (P25090 1-351): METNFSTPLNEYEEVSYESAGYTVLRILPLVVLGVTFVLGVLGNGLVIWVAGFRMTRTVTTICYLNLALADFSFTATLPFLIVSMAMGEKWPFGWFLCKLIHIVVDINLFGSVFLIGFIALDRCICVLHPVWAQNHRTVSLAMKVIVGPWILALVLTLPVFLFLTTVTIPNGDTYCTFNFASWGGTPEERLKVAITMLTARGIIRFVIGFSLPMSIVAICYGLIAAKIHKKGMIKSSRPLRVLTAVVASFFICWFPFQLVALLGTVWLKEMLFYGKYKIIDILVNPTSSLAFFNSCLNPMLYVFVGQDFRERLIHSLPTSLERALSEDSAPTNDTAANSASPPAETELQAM
Procedure, shortened: (§1)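 Inhibition of forskolin-stimulated cAMP (final forskolin 5 μM for FPR2, 10 μM for FPR1; IBMX 200 μM) was measured by HTRF in recombinant CHO cells after 30 min at room temperature.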

human FPR1 = target: T2, human FPR1 (Homo sapiens, UniProt P21462); assay: FPR1 cyclic adenosine monophosphate (cAMP) assay; type: cell-based; settings: CHO cells overexpressing human FPR1; forskolin 10 μM; inhibition of cAMP production; HTRF; read-out: hFPR1 cAMP2 EC50
T2 sequence (P21462 1-350): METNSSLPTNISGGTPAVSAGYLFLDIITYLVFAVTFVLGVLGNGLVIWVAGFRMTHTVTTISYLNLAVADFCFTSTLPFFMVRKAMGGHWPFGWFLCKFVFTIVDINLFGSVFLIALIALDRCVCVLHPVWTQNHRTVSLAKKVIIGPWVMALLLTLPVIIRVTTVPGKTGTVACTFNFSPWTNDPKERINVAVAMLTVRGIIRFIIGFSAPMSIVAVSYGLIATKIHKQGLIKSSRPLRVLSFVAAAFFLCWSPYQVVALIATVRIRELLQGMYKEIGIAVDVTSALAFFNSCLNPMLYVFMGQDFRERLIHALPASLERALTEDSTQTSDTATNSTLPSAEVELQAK
Procedure, shortened: as §1

EC50 (human FPR2) [nM] | EC50 (human FPR1) [nM] | Structure (SMILES)
5 | > 10000 | [2H]C([2H])([2H])Oc1cc(F)c(-c2c(NC(=O)c3ccc(OC(F)(F)F)cc3)c(=O)n(-c3cc(C(F)(F)F)ccn3)n2C)c(F)c1 [Example 402, N-(5-(2,6-difluoro-4-(methoxy-d3)phenyl)-1-methyl-3-oxo-2-(4-(trifluoromethyl)pyridin-2-yl)-2,3-dihydro-1H-pyrazol-4-yl)-4-(trifluoromethoxy)benzamide]
6 | 1700 | CCc1cc(F)c(-c2c(NC(=O)c3ccc(OC(F)(F)F)cc3)c(=O)n(-c3cccc(C(C)(C)O)n3)n2C)c(F)c1 [Example 403, N-(5-(4-ethyl-2,6-difluorophenyl)-2-(6-(2-hydroxypropan-2-yl)pyridin-2-yl)-1-methyl-3-oxo-2,3-dihydro-1H-pyrazol-4-yl)-4-(trifluoromethoxy)benzamide]
7 | 1500 | [2H]C([2H])([2H])Oc1cc(F)c(-c2c(NC(=O)c3ccc(OC(F)F)cc3)c(=O)n(-c3cccc(C(C)(C)O)n3)n2C)c(F)c1 [Example 404, N-(5-(2,6-difluoro-4-(methoxy-d3)phenyl)-2-(6-(2-hydroxypropan-2-yl)pyridin-2-yl)-1-methyl-3-oxo-2,3-dihydro-1H-pyrazol-4-yl)-4-(difluoromethoxy)benzamide]
8 | 390 | [2H]C([2H])([2H])Oc1cc(F)c(-c2c(NC(=O)c3ccc(OC(F)(F)F)cc3)c(=O)n(-c3cccc(C(C)(C)O)n3)n2C)c(F)c1 [Example 405, N-(5-(2,6-difluoro-4-(methoxy-d3)phenyl)-2-(6-(2-hydroxypropan-2-yl)pyridin-2-yl)-1-methyl-3-oxo-2,3-dihydro-1H-pyrazol-4-yl)-4-(trifluoromethoxy)benzamide]
12 | 1600 | Cn1c(-c2c(F)cc(Cl)cc2F)c(NC(=O)c2ccc(OC(F)(F)F)cc2)c(=O)n1-c1cccc(C(C)(C)O)n1 [Example 406, N-(5-(4-chloro-2,6-difluorophenyl)-2-(6-(2-hydroxypropan-2-yl)pyridin-2-yl)-1-methyl-3-oxo-2,3-dihydro-1H-pyrazol-4-yl)-4-(trifluoromethoxy)benzamide]
23 | > 10000 | Cn1c(-c2c(F)cc(Cl)cc2F)c(NC(=O)c2ccc(OC(F)F)cc2)c(=O)n1-c1cccc(C(C)(C)O)n1 [Example 407]
7 | 1100 | CC(C)Oc1cc(OCC(C)(C)O)nc(-n2c(=O)c(NC(=O)c3ccc(OC(F)(F)F)cc3)c(-c3c(F)cc(Cl)cc3F)n2C)c1 [Example 408, N-(5-(4-chloro-2,6-difluorophenyl)-2-(6-(2-hydroxy-2-methylpropoxy)-4-isopropoxypyridin-2-yl)-1-methyl-3-oxo-2,3-dihydro-1H-pyrazol-4-yl)-4-(trifluoromethoxy)benzamide]

— patent US12577206B2 (BRISTOL-MYERS SQUIBB COMPANY, priority 2020, dated 2026)
